# Reference: paper PMC10447463, “Data-mining unveils structure–property–activity correlation of viral infectivity enhancing self-assembling peptides” (Nature Communications, 2023)
# Several values for one entry are separate records, joined by “and”; a condition that tells them apart may be missing. Equal values may be shown once. Read-outs that look alike come from different tables or passages of the source.
# Columns and labels:
# [1] = tested on: HIV-1 infection of TZM-bl cells; experiment: HIV-1 infectivity enhancement assay, β-galactosidase luminescence; format: cell-based; conditions: for Rel-to EFC / n-fold to virus: Fig S8 panels B, D; for Log10 Inf. rel. to EF-C: log10 of HIV-1 infection of TZM-bl cells relative to EF-C, Fig S15 source data; for Log10 Inf. rel. to EF-C / Log Infectivity: asymmetric std dev errors; for Log Infectivity: Log10 infection relative to EF-C, TZM-bl cells; for Log10 Infection Rel EF-C: HIV-1 infection of TZM-bl cells
# [2] = β-sheet content by ATR-FT-IR; format: physicochemical
# Method in brief: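 β-sheet content came from ATR FT-IR spectra of lyophilized 1 mg/mL nanofibril solution (64 scans, 2 cm^-1 resolution). Conversion was measured by separating free monomer with a 3 kDa cutoff filter, then comparing fluorescamine fluorescence (ex 365/em 470 nm, 20 min RT) of filtrate versus unfiltered sample, in triplicate.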
# [3] = Zeta-potential measurement; format: physicochemical; conditions: for Zeta-pot. / mV: zeta potential of peptide, Fig S15 source data
# Method in brief: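 Zeta potentials of aggregated peptides come from electrophoretic mobility (Smoluchowski model) in 1 mM KCl after a 1 d RT incubation at 1 mg/mL in PBS, pH 7.4.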
# [4] = format: physicochemical; design: key to Fibril / Fibril Formation / TEM 2cat / Fibril: 1 = fibrils present; 0 non-fibrillar structures
# [5] = Feb2021, Log10 of infectivity relative to EF-C
# [6] = Feb2021, figures match the 1.3 µM column
# [7] = Feb2021, infectivity enhancement relative to EF-C
# [8] = Feb2021, infectivity relative to virus only
# [9] = Feb2021, n-fold infectivity relative to EF-C
# [10] = Feb2021 run, infectivity n-fold relative to virus alone
# [11] = Feb2021 run, log10 of infectivity relative to EF-C
# [12] = Feb2021 run, n-fold infectivity relative to EF-C
# [13] = infectivity enhancement relative to EF-C
# [14] = infectivity n-fold relative to virus alone
# [15] = infectivity class (low / medium / high) of each library peptide, main list in c1-c6, same classes repeated in sub-lists of sequences containing the hydrophobicity/charge patterns P+,H0,P+,H0,P0,H0,P0, P+,H0,P0,H0,P0,H0,P0, P+,H0,P0,H0
# [16] = category derived from the zeta potential
# [17] = Feb2021, n-fold enhancement relative to EF-C
# [18] = Feb2021, 1.3 µM value relative to virus only (0 µM)
# [19] = Feb2021, unrounded values of the 1.3 µM column
# [20] = infectivity class (low / medium / high) of the peptide in the sequence-pattern analysis, Fig. S22-A4, class limits not given
Substance,"Log10 of Rel to EFC (Feb2021) [1, 5]","Absolute Infectivity / RLU /s (Feb2021) [1, 6] [RLU /s]","Rel-to EFC (Feb-2021) [1, 7]","Rel-to EFC (Feb-2021) [1, 9]","n-fold to virus (Feb2021) [1, 10]","Log10 of Rel to EFC (Feb2021) [1, 11]","Rel-to EFC (Feb-2021) [1, 12]","infectivity [1, 15]",Log10 Inf. rel. to EF-C [1],FTIR ß-sheet content/ % ([2]; ATR-FT-IR),Zeta category ( +1 = if > 4 mV;-1 = if < -4 mV; 0 = -4mV to 4 mV) [3],"Zeta Pot. / mV ([3]; mean, Std Zeta in next column) [mV]","Zeta Pot. / mV ([3]; mean, Std in separate column) [mV]",Zeta-pot. / mV [3] [mV],"TEM: 1= fibrils, 0= aggregates (micelle), 0.5 = aggregates and fibrils, -1 = nothing obersved, STD prep [4]","Rel-to EFC (Feb-2021) [1, 17]",FTIR ß-sheet content/ % [2] [%],Zeta category ( +1 = if > 4 mV;-1 = if < -4 mV; 0 = -4mV to 4 mV) ([3]; category from zeta potential),"n-fold to virus (Feb2021) [1, 18]","Absolute Infectivity / RLU /s (Feb2021) [1, 19] [RLU /s]",other results
CKFKQFFNM [CK14],-0.3892,15720,0.4081,0.4081,17.15,-0.3892,0.4081,medium,-0.3892,0%,1 (+1 = if > 4 mV),15.2,15.2,15.2,1,–,–,–,–,–,"n-fold to virus (Feb2021) [1, 8]: 17.15; Rel-to EFC [1, 13]: 0.4081; n-fold to virus [1, 14]: 17.15; Zeta Pot. / mV [3]: 15.2 mV; Zeta category ( +1 = if > 4 mV;-1 = if < -4 mV; 0 = -4mV to 4 mV) [3, 16]: 1 (+1 = if > 4 mV)"
CKFKQFFNMWQ [CK13],-0.2148,23486.66667,–,0.6098,25.62,-0.2148,0.6098,medium,-0.2148,59% and 59.11%,1 (+1 = if > 4 mV),8.563,8.563,8.563,1,0.6098,59.11,1 (+1 = if > 4 mV),–,–,"n-fold to virus (Feb2021) [1, 8]: 25.62; Zeta Pot. / mV [3]: 8.563 mV"
CKIKIQI [MG3b],0.008101,–,1.019,1.019,42.81,0.008101,1.019,–,0.0081,53%,1 (+1 = if > 4 mV),12.8,12.8,12.8,1,1.019,53,1 (+1 = if > 4 mV),42.81,19406.66667,"Log10 of Rel to EFC (Feb2021) ([1]; Feb2021, log10 of infectivity relative to EF-C): 0.008101; Rel-to EFC [1, 13]: 1.019; n-fold to virus [1, 14]: 42.81; infectivity [1, 20]: high; Rel-to EFC (Feb-2021) ([1]; infectivity enhancement relative to EF-C (=1), Feb2021 run): 1.019; n-fold to virus (Feb2021) ([1]; infectivity n-fold relative to virus only, Feb2021 run): 42.81; Log10 of Rel to EFC (Feb2021) ([1]; log10 of infectivity relative to EF-C, Feb2021 run): 0.008101; Zeta category ( +1 = if > 4 mV;-1 = if < -4 mV; 0 = -4mV to 4 mV) ([3]; FigS26): 1 (+1 = if > 4 mV); Zeta category ( +1 = if > 4 mV;-1 = if < -4 mV; 0 = -4mV to 4 mV) [3, 16]: 1 (+1 = if > 4 mV); TEM: 1= fibrils, 0= aggregates (micelle), 0.5 = aggregates and fibrils, -1 = nothing obersved, STD prep ([4]; FigS26): 1"
CKIKIQINM [MG2],0.2012,–,–,1.589,66.78,0.2012,1.589,high,0.2012,43% and 42.84%,1 (+1 = if > 4 mV),16.83,16.83,16.83,1,1.589,42.84,1 (+1 = if > 4 mV),66.78,30273.33333,"infectivity [1, 20]: high"
CKIKIQINMWQ,–,–,–,–,–,–,–,–,–,–,–,–,–,–,–,–,–,–,–,–,"Rel-EFC ([1]; 1.3 µM peptide, infection relative to EF-C (QCKIKQIINMWQ = 1)): 0,7; Log10 Infection Rel EFC ([1]; 1.3 µM peptide, log10 of infection relative to EF-C): -0,16; Log Infectivity ([1]; Fig. S7 panel A (plotted against β-sheet content)): -0.155; Log Infectivity ([1]; Fig. S7 panel B (plotted against CR), rounded to two decimals): -0.16; Log10 Infection Rel EF-C ([1]; Log10 of infection rate relative to EF-C, Figure 3A source data): -0.16; Log10 Infection Rel EF-C ([1]; infection rate relative to EF-C, log10, data of Figure 2D): -0.155; Log10 Infection Rel EF-C ([1]; infection rate relative to EF-C, log10, source data of Figure 2C): -0.155; Log10 of Rel to EFC (Feb2021) ([1]; Log10 of infection relative to EF-C, all peptides of FigS16): -0.16; b -sheet / % ([2]; Fig. S7 panel A, β-sheet content by ATR-FT-IR): 44.89%; Zeta-Pot. ([3]; zeta potential of peptide assemblies): 13.87; Zeta-Potential / mV ([3]; zeta-potential of peptide, source data of Figure 2C): 12.25 mV; Zeta-Potential / mV ([3]; zeta-potential of the peptide assemblies, mean, Figure 3A source data): 13.87 mV; TEM 2cat ([4]; Fig S10 panel D, fibril category by TEM): 1; Fibril ([4]; Fig S10 panel E): 1; Fibril / Fibril Formation ([4]; TEM, 1 mg/mL, uranyl acetate stain, qualitative): 1; Fibril ([4]; TEM, 1 = fibrils present, 0 = non-fibrillar): 1; Fibril ([4]; TEM, 1 = fibrils present, 0 = non-fibrillar structures): 1; TEM 2cat ([4]; category: fibrils present or non-fibrillar): 1"
CKIKIQINMWQ [MG1],-0.155,–,–,0.6998,29.41,-0.155,0.6998,medium,-0.155,45% and 44.89%,1 (+1 = if > 4 mV),13.87,13.87,13.87,1,0.6998,44.89,1 (+1 = if > 4 mV),29.41,18623.33333,–
